From ChEMBL document CHEMBL3853265 (Medchemcomm, 2016)

Tests used:
CYP2C9 = CYP2C9 (Homo sapiens, UniProt P11712); test: Inhibition of CYP2C9 (unknown origin) at 3 uM relative to control; assay type: ADME
Cytochrome P450 1A2 = target: T1, Cytochrome P450 1A2 (Homo sapiens, UniProt P05177); test: Inhibition of CYP1A2 (unknown origin); assay type: ADME
T1 sequence (P05177 whole entry): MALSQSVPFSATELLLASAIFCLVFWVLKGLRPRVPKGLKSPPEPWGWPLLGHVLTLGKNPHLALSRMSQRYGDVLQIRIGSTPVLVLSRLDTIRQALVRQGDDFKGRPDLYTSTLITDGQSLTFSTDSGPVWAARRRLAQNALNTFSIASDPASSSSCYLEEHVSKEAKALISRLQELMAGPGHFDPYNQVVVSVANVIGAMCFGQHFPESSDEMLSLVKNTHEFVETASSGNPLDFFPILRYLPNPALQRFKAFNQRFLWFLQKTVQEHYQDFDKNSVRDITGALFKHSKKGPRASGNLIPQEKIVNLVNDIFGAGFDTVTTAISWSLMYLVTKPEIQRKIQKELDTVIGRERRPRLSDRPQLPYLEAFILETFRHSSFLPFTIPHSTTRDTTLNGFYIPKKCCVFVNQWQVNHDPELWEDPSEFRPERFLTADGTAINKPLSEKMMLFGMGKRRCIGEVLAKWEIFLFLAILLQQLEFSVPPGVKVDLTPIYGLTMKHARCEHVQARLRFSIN

Cytochrome P450 2C9 = Cytochrome P450 2C9 (Homo sapiens, UniProt P11712); test: Inhibition of CYP2C9 (unknown origin); assay type: ADME
[1] = Plasma clearance in dog at 0.363 mg/kg, iv and 0.737 mg/kg, po; assay type: ADME, organism-based, Canis lupus familiaris
[2] = Unbound clearance in dog at 0.363 mg/kg, iv and 0.737 mg/kg, po; assay type: ADME, organism-based, Canis lupus familiaris; conditions: in vivo
[3] = Drug recovery in bile of bile duct cannulated rat; assay type: ADME; conditions: read-out: Drug recovery
[4] = Drug metabolism in dog liver microsomes; assay type: ADME, Canis lupus familiaris
[5] = Drug metabolism in rat hepatocytes assessed as monooxidation; assay type: ADME, cell-based, Hepatocyte
[6] = Drug metabolism in dog hepatocytes; assay type: ADME, cell-based, Canis lupus familiaris, Hepatocyte
Rattus norvegicus [7] = test: Toxicity in Wistar Han rat assessed as increase in lymphocyte counts at >= 30 mg/kg/day, po administered for 14 days; assay type: organism-based; conditions: in vivo, 336 h
[8] = Toxicity in po dosed dog assessed as drug tolerance administered as single dose; assay type: organism-based, Canis lupus familiaris; conditions: in vivo
[9] = Toxicity in dog assessed as uncontrollable panting at 30 mg/kg, po administered as single dose; assay type: organism-based, Canis lupus familiaris; conditions: in vivo
[10] = Unbound clearance in dog at 1 mg/kg, iv and 3 mg/kg, po; assay type: ADME, organism-based, Canis lupus familiaris; conditions: in vivo
Rattus norvegicus [11] = test: Toxicity in Wistar Han rat at <= 100 mg/kg/day, po administered for 14 days by macroscopic analysis; assay type: organism-based; conditions: in vivo, 336 h
[12] = Unbound Cmax in Wistar Han rat at 100 mg/kg, po […] measured on day 14; assay type: ADME, organism-based; conditions: in vivo
[13] = Average plasma concentration in Wistar Han rat at 100 mg/kg, po administered as single dose measured on day 14; assay type: ADME, organism-based; conditions: in vivo

Chain of Cytochrome P450 2C9 (P11712 whole entry): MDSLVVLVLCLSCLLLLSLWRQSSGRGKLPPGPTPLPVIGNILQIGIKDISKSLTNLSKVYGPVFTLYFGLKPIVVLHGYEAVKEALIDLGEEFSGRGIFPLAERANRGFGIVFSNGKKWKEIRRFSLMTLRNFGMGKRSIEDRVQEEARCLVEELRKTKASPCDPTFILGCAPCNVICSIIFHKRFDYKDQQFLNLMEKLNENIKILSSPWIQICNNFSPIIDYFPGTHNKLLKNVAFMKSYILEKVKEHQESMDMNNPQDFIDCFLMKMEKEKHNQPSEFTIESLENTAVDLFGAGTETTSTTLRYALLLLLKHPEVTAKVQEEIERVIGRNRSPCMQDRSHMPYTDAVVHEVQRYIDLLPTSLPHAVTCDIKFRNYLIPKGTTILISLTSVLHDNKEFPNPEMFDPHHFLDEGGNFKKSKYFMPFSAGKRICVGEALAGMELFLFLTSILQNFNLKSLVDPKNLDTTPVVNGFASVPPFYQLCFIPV
Chain of CYP2C9 (P11712 whole entry): as above

SMILES	inhibition at 3 µM (CYP2C9) [%]	IC50 (Cytochrome P450 1A2) [nM]	IC50 (Cytochrome P450 2C9) [nM]	clearance [1] [mL/min/kg]	CL free [2] [mL/min/kg]	dose excreted [3] [%]	Drug metabolism [4]	Drug metabolism [5]	Drug metabolism [6]	Activity (Rattus norvegicus [7])	Activity [8]	Activity [9]	CL free [10] [mL/min/kg]	Activity (Rattus norvegicus [11])	fCmax [12] [nM]	Cave [13] [nM]
O=S(=O)(Nc1ccc(C(F)(F)F)nc1)c1ccccc1C(F)(F)F	24	> 30000	1100	0.014	1.4	< 1	Metabolite_Notdetected	Metabolite_Detected	Metabolite_Notdetected	Non-Toxic	<= 30 mg kg-1	Toxic				
O=S(=O)(Nc1cncc(C(F)(F)F)c1)c1ccccc1C(F)(F)F													17.5	Non-Toxic	2153	807
